In patent US20020111486A1, “Transition metal-cyclopentadienyl-tropane conjugates” (priority 1999, published 2002):

Key:
Conditions in all cases: mean±SEM; rat striatal and cortical tissues
[1] = molecular target: T1, dopamine transporter (DAT) (Rattus norvegicus, UniProt P23977); test: Dopamine transporter binding affinity in rat striatal tissue
T1 construct: from tissue; host or cells: rat striatal tissue
Protocol: (§1) The binding affinities (mean±SEM) of compounds 1a, 1b, 1c, 1d, and 1e for the dopamine transporter (DAT), the serotonin transporter (5-HTT), and norepinephrine (NET) were evaluated in, respectively, rat striatal and cortical tissues according to methods described in Tamagnan et al., Advances in Neurology, Parkinson's Disease. 80: 91-103 (1999). The results are summarized in Table 1 below. β-CIT was run concurrently as a control.

[2] = molecular target: T2, serotonin transporter (5-HTT) (Rattus norvegicus, UniProt P31652); test: Serotonin transporter binding affinity in rat tissue
T2 construct: from tissue
T2 sequence (P31652 whole entry): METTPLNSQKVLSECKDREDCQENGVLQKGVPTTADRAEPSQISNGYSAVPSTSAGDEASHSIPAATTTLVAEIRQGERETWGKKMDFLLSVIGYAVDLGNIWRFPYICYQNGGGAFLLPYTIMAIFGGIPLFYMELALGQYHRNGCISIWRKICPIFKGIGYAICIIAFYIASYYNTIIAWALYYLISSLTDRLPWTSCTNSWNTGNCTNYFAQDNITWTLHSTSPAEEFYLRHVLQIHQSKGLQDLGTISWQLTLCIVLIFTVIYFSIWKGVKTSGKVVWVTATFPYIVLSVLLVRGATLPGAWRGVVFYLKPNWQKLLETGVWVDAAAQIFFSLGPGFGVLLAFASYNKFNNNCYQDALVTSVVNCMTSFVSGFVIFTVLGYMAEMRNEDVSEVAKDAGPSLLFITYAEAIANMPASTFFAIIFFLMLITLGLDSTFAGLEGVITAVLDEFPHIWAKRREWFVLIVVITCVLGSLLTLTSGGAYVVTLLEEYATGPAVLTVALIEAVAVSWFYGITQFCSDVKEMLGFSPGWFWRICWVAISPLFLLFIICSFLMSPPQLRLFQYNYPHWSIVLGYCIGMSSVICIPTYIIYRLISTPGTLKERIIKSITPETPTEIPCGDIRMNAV
Protocol: as §1

[3] = molecular target: T3, norepinephrine (NET) (Rattus norvegicus, UniProt Q63380); test: Norepinephrine transporter binding affinity in rat tissue
T3 construct: from tissue
T3 sequence (Q63380 1-617): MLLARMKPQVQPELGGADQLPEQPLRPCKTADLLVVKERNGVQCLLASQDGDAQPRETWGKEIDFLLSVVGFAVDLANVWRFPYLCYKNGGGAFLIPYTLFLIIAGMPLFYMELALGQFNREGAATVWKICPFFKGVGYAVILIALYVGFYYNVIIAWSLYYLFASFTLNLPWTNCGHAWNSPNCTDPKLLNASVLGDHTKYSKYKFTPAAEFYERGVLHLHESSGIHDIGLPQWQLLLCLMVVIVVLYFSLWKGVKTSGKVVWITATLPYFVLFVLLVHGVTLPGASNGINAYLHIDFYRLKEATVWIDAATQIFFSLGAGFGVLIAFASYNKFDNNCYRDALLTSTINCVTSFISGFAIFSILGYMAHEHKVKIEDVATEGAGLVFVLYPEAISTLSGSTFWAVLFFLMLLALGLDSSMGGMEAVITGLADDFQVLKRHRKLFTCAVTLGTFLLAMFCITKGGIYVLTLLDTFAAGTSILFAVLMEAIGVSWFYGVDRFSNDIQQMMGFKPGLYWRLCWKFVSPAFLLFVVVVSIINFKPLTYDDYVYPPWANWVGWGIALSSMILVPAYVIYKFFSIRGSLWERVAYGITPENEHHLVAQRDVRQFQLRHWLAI
Protocol: as §1

T1 sequence (P23977 whole entry): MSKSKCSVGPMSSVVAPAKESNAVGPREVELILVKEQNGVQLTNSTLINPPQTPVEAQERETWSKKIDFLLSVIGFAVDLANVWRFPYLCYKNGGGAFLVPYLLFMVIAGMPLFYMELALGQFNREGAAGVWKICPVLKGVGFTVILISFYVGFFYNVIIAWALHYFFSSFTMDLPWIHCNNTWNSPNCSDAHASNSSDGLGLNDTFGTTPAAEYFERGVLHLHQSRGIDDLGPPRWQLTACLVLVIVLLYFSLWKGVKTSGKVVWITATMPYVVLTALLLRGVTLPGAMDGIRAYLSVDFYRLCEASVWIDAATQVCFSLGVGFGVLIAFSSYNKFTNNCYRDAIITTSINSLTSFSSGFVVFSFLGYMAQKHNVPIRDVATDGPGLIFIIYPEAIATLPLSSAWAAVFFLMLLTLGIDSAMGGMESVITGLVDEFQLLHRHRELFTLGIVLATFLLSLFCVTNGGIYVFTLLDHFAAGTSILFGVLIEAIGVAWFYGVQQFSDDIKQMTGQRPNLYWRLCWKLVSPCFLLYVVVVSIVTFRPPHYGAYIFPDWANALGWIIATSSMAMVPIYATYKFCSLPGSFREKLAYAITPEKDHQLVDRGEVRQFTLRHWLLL

**Q.** With “3-(4-Chlorophenyl)-8-(3-tricarbonylrhenatocyclopentadienyloxy-carbonylpropyl)-8-aza-bicyclo[3.2.1 ]octane-2-carboxylic acid methyl ester [Compound 1b]” as the compound, how does the Ki [1] read?
**A.** 4.18 ± 0.33 nM

**Q.** And the Ki [2]?
**A.** 5.28 ± 0.21 nM

**Q.** And the Ki [3]?
**A.** 74 ± 8.2 nM

**Q.** What does the source list for “3β-(4-Chlorophenyl)-8-(4-cyclopentadienyltricarbonyl rhenium-butyl)-8-azabicyclo[3.2.1 ]octane-2β-carboxylic acid methyl ester [Compound 1d]”?
**A.** Ki [1]: 5.45 ± 0.64 nM; Ki [2]: 1.14 ± 0.16 nM; Ki [3]: 199 ± 30 nM

**Q.** For “8-Methyl-3β-[4 carbonyl -(cyclopentadienyltricarbonyl rhenium)-phenyl]-8-azabicyclo[3.2.1 ]octane-2β-carboxylic acid methyl ester [Compound 1c]”, which Ki [1] is on record?
**A.** > 10000 nM

**Q.** And the Ki [2]?
**A.** > 10000 nM

**Q.** And the Ki [3]?
**A.** > 30000 nM

**Q.** What does the source list for `COC(=O)C1C(c2ccc(I)cc2)CC2CCC1N2C` (stereo not drawn) [β-CIT, β-Carbomethoxy-3β-(4-iodophenyl) tropane, reference compound]?
**A.** Ki [1]: 0.96 ± 0.15 nM; Ki [2]: 0.46 ± 0.06 nM; Ki [3]: 2.8 ± 0.4 nM

**Q.** Which Ki [1] does the source give for “N-(4-oxo-4-tricarbonylcyclopentadienylrhenio)-2β-hydroxymethyl-3β-(4-chlorophenyl)-nortropane [Compound 1a]” here?
**A.** 13 ± 1.8 nM

**Q.** What about the Ki [2] of the same compound?
**A.** 13.3 ± 1 nM

**Q.** And the Ki [3]?
**A.** 74 ± 8.2 nM
